In patent US9828350B2, “5,6-dihydro-2H-[1,4]oxazin-3-yl-amine derivatives useful as inhibitors of beta-secretase (BACE)” (Janssen Pharmaceutica NV, priority 2010, dated 2017):
Structures can show the parent of a compound that is named as a salt.

Experiments:
Abeta total = assay: Cellular αLisa assay in SKNBE2 cells, Abeta total; format: cell-based, human; conditions: incubated for 18 hours; for IC50: Homo sapiens, SKNBE2, 18 h, read-out: Cellular αLisa assay in SKNBE2 cells Abetatotal pIC50 (converted)
Procedure: (§1) Cellular αLisa Assay in SKNBE2 Cells
(§2) In two αLisa assays the levels of Abeta total and Abeta 1-42 produced and secreted into the medium of human neuroblastoma SKNBE2 cells are quantified. The assay is based on the human neuroblastoma SKNBE2 expressing the wild type Amyloid Precursor Protein (hAPP695). The compounds are diluted and added to these cells, incubated for 18 hours and then measurements of Abeta 1-42 and Abeta total are taken. Abeta total and Abeta 1-42 are measured by sandwich αLisa. αLisa is a sandwich assay using biotinylated antibody AbN/25 attached to streptavidin coated beads and antibody Ab4G8 or cAb42/26 conjugated acceptor beads for the detection of Abeta total and Abeta 1-42 respectively. In the presence of Abeta total or Abeta 1-42, the beads come into close proximity. The excitation of the donor beads provokes the release of singlet oxygen molecules that trigger a cascade of energy transfer in the acceptor beads, resulting in light emission. Light emission is measured after 1 hour incubation (excitation at […] and emission at 615 nm).

Abeta 1-42 = assay: Cellular αLisa assay in SKNBE2 cells, Abeta 1-42; format: cell-based, human; conditions: incubated for 18 hours; for IC50: Homo sapiens, SKNBE2, 18 h, read-out: Cellular αLisa assay in SKNBE2 cells Abeta 42 pIC50 (converted)
Procedure: as §1, §2

[1] = target: recombinant BACE1 protein (Homo sapiens, UniProt P56817); assay: Biochemical FRET based assay; conditions: recombinant BACE1 1 μg/ml, 120 minutes at room temperature, pH 5.0; for IC50: read-out: Biochemical FRET based assay pIC50 (converted)
recombinant BACE1 protein, sequence (P56817 46-501): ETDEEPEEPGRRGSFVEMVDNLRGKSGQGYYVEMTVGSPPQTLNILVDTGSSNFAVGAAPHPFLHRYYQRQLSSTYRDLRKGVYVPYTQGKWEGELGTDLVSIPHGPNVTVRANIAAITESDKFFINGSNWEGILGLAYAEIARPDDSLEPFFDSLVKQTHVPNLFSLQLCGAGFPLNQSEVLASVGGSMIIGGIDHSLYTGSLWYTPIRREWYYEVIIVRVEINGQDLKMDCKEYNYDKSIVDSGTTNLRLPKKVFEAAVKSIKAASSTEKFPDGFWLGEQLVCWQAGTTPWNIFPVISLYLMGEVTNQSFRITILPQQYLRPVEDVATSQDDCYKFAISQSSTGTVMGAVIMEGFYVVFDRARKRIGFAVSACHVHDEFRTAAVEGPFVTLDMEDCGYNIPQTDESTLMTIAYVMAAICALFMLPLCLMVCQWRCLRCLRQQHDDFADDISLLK
Description: Biochemical FRET Based Assay
This assay is a Fluorescence Resonance Energy Transfer Assay (FRET) based assay. The substrate for this assay is an APP derived 13 amino acids peptide that contains the ‘Swedish’ Lys-Met/Asn-Leu mutation of the amyloid precursor protein (APP) beta-secretase cleavage site. This substrate also contains two fluorophores: (7-methoxycoumarin-4-yl) acetic acid (Mca) is a fluorescent donor with excitation wavelength at 320 nm and emission at 405 nm and 2,4-Dinitrophenyl (Dnp) is a proprietary quencher acceptor. […] Upon cleavage by BACE1, the fluorophore Mca is separated from the quenching group Dnp, restoring the full fluorescence yield of the donor. The increase in fluorescence is linearly related to the rate of proteolysis.
Briefly in a 384-well format recombinant BACE1 protein in a final concentration of 1 μg/ml is incubated for 120 minutes at room temperature with […] substrate in incubation buffer (40 mM Citrate buffer pH 5.0, 0.04% PEG, 4% DMSO) in the absence or presence of compound. Next the amount of proteolysis is directly measured by fluorescence measurement at T=0 and T=120 (excitation at 320 nm and emission at 405 nm). Results are expressed in RFU (Relative Fluorescence Units), as difference between T120 and TO.

| SMILES | Cellular αLisa assay in SKNBE2 cells Abetatotal pIC50 (Abeta total) | Cellular αLisa assay in SKNBE2 cells Abeta 42 pIC50 (Abeta 1-42) | IC50 [1] | Biochemical FRET based assay pIC50 [1] | IC50 (Abeta total) | IC50 (Abeta 1-42) |
| --- | --- | --- | --- | --- | --- | --- |
| CC1(c2cccc(-c3cncnc3)c2)N=C(N)COC1F (single isomer, unassigned) [Compound 97] | 6.87 | 6.86 | 6170 nM |  |  |  |
| CC1(c2cccc(NC(=O)c3ccc(C#N)cn3)c2)COCC(N)=N1 (racemic) [Compound 64] | 7.37 | 7.36 |  | 6.41 |  |  |
| COc1cncc(-c2ccc(F)c(C3(C)COCC(N)=N3)c2)c1 (racemic) [Compound 63] | 6.9 | 6.94 |  | 5.46 |  |  |
| CC1(c2cc(NC(=O)c3ccc(C#N)cn3)ccc2F)N=C(N)COC1F (stereo not drawn) [Compound 76] |  |  |  |  | 11.2 nM | 11 nM |
| CC1(c2cccc(NC(=O)c3ccc(Cl)cn3)c2)COC(F)(C(F)(F)F)C(N)=N1 (single isomer, unassigned) [Compound 71] | <5 | <5 |  | 6.25 |  |  |
| COc1cc(Cl)ccc1C(=O)Nc1ccc(F)c([C@]2(C)COCC(N)=N2)c1 [Compound 45] | 6.92 | 6.85 |  | 5.53 |  |  |
| CC1(c2cccc(-c3cncnc3)c2)COCC(N)=N1 (racemic) [Compound 3, rac-5-methyl-5-(3-pyrimidin-5-ylphenyl)-5,6-dihydro-2H-1,4-oxazin-3-amine trifluoroacetate salt] |  |  |  |  | 646 nM | 631 nM |
| C[C@@]1(c2cc(NC(=O)c3ccc(Cl)cn3)ccc2F)COCC(N)=N1 [Compound 44] | 8.3945 | 8.39 |  |  |  |  |
| CC1(c2cc(NC(=O)c3ccc(Cl)cn3)ccc2F)COCC(N)=N1 (racemic) [Compound 17] | 8.3 | 8.32 |  |  |  |  |
| CC1(c2cc(NC(=O)c3ccc(Cl)cn3)ccc2F)COCC(N)=N1 (single isomer, unassigned) [Compound 61] | 6.98 | 6.94 |  |  |  |  |
| CC1(c2cc(NC(=O)c3ncc(Cl)cc3Cl)ccc2F)COCC(N)=N1 (stereo not drawn) [Compound 21] | 8.3 | 8.27 |  |  |  |  |
| COc1cnc(C(=O)Nc2ccc(F)c(C3(C)COCC(N)=N3)c2)cn1 (racemic) [Compound 57] | 7.8 | 7.79 |  |  |  |  |
| COc1cnc(C(=O)Nc2ccc(F)c(C3(C)N=C(N)COC3F)c2)cn1 (stereo not drawn) [Compound 79] |  |  |  |  | 25.7 nM | 25.7 nM |
| CC1(c2cc(NC(=O)c3ccc(Cl)cn3)ccc2F)COCC(N)=N1 (racemic) [Compound 65] | 8.3 | 8.32 |  |  |  |  |
| C[C@@]1(c2cc(NC(=O)c3ccc(Cl)cn3)ccc2F)COCC(N)=N1 [Compound 62] | 8.39 | 8.39 |  |  |  |  |

More lines, now with the values ahead:

| Cellular αLisa assay in SKNBE2 cells Abetatotal pIC50 (Abeta total) | Cellular αLisa assay in SKNBE2 cells Abeta 42 pIC50 (Abeta 1-42) | IC50 [1] | Biochemical FRET based assay pIC50 [1] | IC50 (Abeta total) | IC50 (Abeta 1-42) | SMILES |
| --- | --- | --- | --- | --- | --- | --- |
| 5.06 | 5.04 |  |  |  |  | CC1(c2cc(NC(=O)c3ccc(Cl)cn3)ccc2F)N=C(N)COC1F (single isomer, unassigned) [Compound 135] |
| 5.5 | 5.82 |  |  |  |  | CC1(c2cccc(NC(=O)c3ccc(Cl)cn3)c2)N=C(N)COC1(F)C(F)(F)F (single isomer, unassigned) [Compound 114] |
|  |  | 49 nM |  | 6.17 nM | 6.31 nM | C[C@]1(c2cc(NC(=O)c3ncc(C#N)cc3Cl)ccc2F)N=C(N)CO[C@H]1C(F)(F)F [Compound 308] |
| <5 | <5 | > 30200 nM |  |  |  | COc1cnc(C(=O)Nc2cccc(C3(C)N=C(N)COC3(F)C(F)(F)F)c2)cn1 (single isomer, unassigned) [Compound 179] |
| <5 | 5.15 | > 30200 nM |  |  |  | CC1(c2cc(-c3cncnc3)ccc2F)N=C(N)COC1C(F)(F)F (single isomer, unassigned) [Compound 267] |
|  |  |  |  | 832 nM | 708 nM | C[C@@]1(c2cc(NC(=O)c3ccc(Cl)cn3)ccc2F)N=C(N)CO[C@]1(F)C(F)(F)F (single isomer, unassigned) [Compound 109, (2R*,3S*)—N-{3-[5-amino-2-fluoro-3-methyl-2-(trifluoromethyl)-3,6-dihydro-2H-1,4-oxazin-3-yl]-4-fluorophenyl}-5-chloropyridine-2-carboxamide] |
| 8 | 8 |  |  |  |  | CC1(c2cc(NC(=O)c3ccc(Cl)cn3)ccc2F)N=C(N)COC1C(F)(F)F (stereo not drawn) [Compound 170] |
|  |  |  |  | 22.4 nM | 22.9 nM | C[C@]1(c2cc(NC(=O)c3ccc(Cl)cn3)ccc2F)N=C(N)CO[C@@]1(F)C(F)(F)F (single isomer, unassigned) [Compound 110, (2S*,3R*)—N-{3-[5-amino-2-fluoro-3-methyl-2-(trifluoromethyl)-3,6-dihydro-2H-1,4-oxazin-3-yl]-4-fluorophenyl}-5-chloropyridine-2-carboxamide] |
| 6.08 | 6.15 |  |  |  |  | CC1(c2cc(NC(=O)c3ccc(Cl)cn3)ccc2F)N=C(N)COC1(F)C(F)(F)F.Cl.Cl (single isomer, unassigned) [Compound 159] |
|  |  |  |  | 209 nM | 229 nM | COc1ccc(C(=O)Nc2cccc([C@@]3(C)N=C(N)CO[C@@]3(F)C(F)(F)F)c2)nc1 [Compound 248] |
| 5.27 | 5.26 |  |  |  |  | CC1(c2cc(NC(=O)c3ccc(Cl)cn3)ccc2F)N=C(N)COC1F (single isomer, unassigned) [Compound 136] |
|  |  |  |  | 4570 nM | 5250 nM | COc1cnc(C(=O)Nc2ccc(F)c(C3(C)N=C(N)COC3F)c2)cn1 (single isomer, unassigned) [Compound 129] |
| 8.13 | 8.14 |  |  |  |  | CC1(c2cc(NC(=O)c3ccc(Cl)cn3)ccc2F)N=C(N)COC1C(F)(F)F (stereo not drawn) [Compound 165] |
| <4.82 | <4.82 |  |  |  |  | CC1(c2cc(NC(=O)c3ccc(Cl)cn3)ccc2F)N=C(N)COC1F (single isomer, unassigned) [Compound 137] |
| 6.78 | 6.75 |  |  |  |  | CC1(c2cc(NC(=O)c3ccc(Cl)cn3)ccc2F)N=C(N)COC1(F)C(F)(F)F (stereo not drawn) [Compound 186] |
|  |  |  |  | 12.6 nM | 15.5 nM | CC1(c2cc(NC(=O)c3ccc(Cl)cn3)ccc2F)N=C(N)COC1C(F)(F)F (racemic) [Compound 107, trans-rac-N-{3-[5-amino-3-methyl-2-(trifluoromethyl)-3,6-dihydro-2H-1,4-oxazin-3-yl]-4-fluorophenyl}-5-chloropyridine-2-carboxamide] |
| 6.42 | 6.44 |  |  |  |  | CC1(c2cc(NC(=O)c3ccc(C#N)cn3)ccc2F)N=C(N)COC1F (single isomer, unassigned) [Compound 125] |
|  |  |  |  | 6460 nM | 8130 nM | NC1=N[C@@](c2cc(-c3cncc(Cl)c3)ccc2F)(C2CC2)[C@H](F)OC1 [Compound 273] |
|  |  |  |  | 14.5 nM | 16.2 nM | COc1ccc(C(=O)Nc2cccc([C@@]3(C)N=C(N)CO[C@]3(F)C(F)(F)F)c2)nc1 [Compound 247] |
| 7.11 |  |  |  |  |  | COc1cnc(C(=O)Nc2ccc(F)c(C3(C4CC4)N=C(N)COC3F)c2)cn1.Cl (stereo not drawn) [Compound 244] |
| 6.68 |  |  |  |  |  | CC1(c2cccc(NC(=O)c3ccc(Cl)cn3)c2)N=C(N)COC1(F)C(F)(F)F (single isomer, unassigned) [Compound 115] |
